Assay results published in patent US20240385198A1, “STING MODULATOR COMPOSITIONS AND METHODS OF USE AND DETECTION THEREOF” (University of South Florida, priority 2023, published 2024).
Where two headings read alike, the source gives them in different places.

Legend:
His-labeled STING = His-labeled STING (Homo sapiens, UniProt Q86WV6, H232R); experiment: Microscale thermophoresis (MST) analysis of STING modulators with 50 nM 2,3-cGAMP (Example 2); type: binding; settings: compounds incubated with 50 nM 2,3-cGAMP
Method: Nanotemper Monolith NT.115 labeled thermophoresis machine (NanoTemper Technologies GmbH, München, Germany) was used with standard treated capillary tubes using samples comprised of labeled protein and titrations of small molecule in 1×PBS. […] Detection of the protein was performed using the blue detection channel with LED excitation power set to 90% and MST set to high allowing 3 s prior to MST on to check for initial fluorescence differences, 25 s for thermophoresis, and 3 s for regeneration after MST off.
[…] Analysis was performed using M.O. Affinity Analysis Software with difference between initial fluorescence measured in the first 5 s as compared with thermophoresis at 15 s at 15 different analyte concentrations ranging from 100 zM to […] and exported into Graphpad Prism v.8 using a Log inhibitor v. response 4 parameter fit.
Microscale Thermophoresis (MST) was performed on compounds incubating with 50 nM 2,3-cGAMP. Confidence is categorized as follows: 1=low confidence (<2 MST shift unit-non-statistical); 2=mid confidence (2-3 MST shift units-intermediate); 3=high confidence ([…]-statistical). Dissociation constants are categorized as follows: A<1 pM; 1 pM≤B<100 pM; 100 pM≤C<10 μM; 10 μM≤D<100 μM.

[1] = test system: STING R232 variant (human recombinant); experiment: MST competition assay of STING oligomerization with 2′,3′-cGAMP (Example 1); type: binding; settings: 100 nM STING, 50 nM 2′,3′-cGAMP; for Interaction with STING as a function of incubation time (dose-response curves): 15 min, 30 min, 45 min incubation, FIGS. 2A-2C; for EC50 interactions (high, mid, low affinity) from MST dose-response: 1:10 series dilution 100 mM to 100 zM, FIGS. 3A, 3B, 4
Description: Temperature Related Intensity Change (TRIC) is a biophysical technique that measures the strength of the interaction between two molecules by detecting a variation in the fluorescence signal of a fluorescently labeled or intrinsically fluorescent target as a result of an IR-laser induced temperature change. The extent of the temperature dependence is strongly related to the chemical environment of the fluorophore, which can be changed by the binding of a ligand to the target. Binding events below the picomolar level are difficult to detect because below this level, the ratio between target protein and analyte is too large for the detector to accurately measure movement. Herein describes a competition assay involving STING along with 2′,3′-cGAMP to detect analyte interaction with STING at sub-picomolar levels by measuring changes to oligomerization of STING.
The NanoTemper Pico instrument produces data in three separate phases: fluorescent count; normalized MST time-trace; and the change in normalized fluorescence (ΔFnorm) result. The fluorescent count is done to ensure that there is no difference between overall fluorescence between fractions, that there is enough fluorescent signal present for the detector to accurately give a reading, but not too much as to negatively affect migration during thermophoresis. It also gives indication if there is aggregation or adsorption within samples. The normalized MST time-trace gives an indication of the movement of molecules by thermophoresis within the detector sight picture over a period of time (T−Jump). The final graph is a ΔFnorm readout which is mathematically determined using the formula:
ΔFnorm=Fhot/Fcold • whereas Fhot equals an area designated by the analyst, located within the T−Jump area and Fcold equals the area within the initial fluorescence area just before the infrared (IR) laser heats the capillary tube.
STING R232 variant (human recombinant) protein was solubilized at 200 nM in HBS-P (0.01M HEPES pH 7.4, 0.15 NaCl, 0.005% v/v surfactant P20) along with 100 nM 2′,3′-cGAMP. 100 nM of NTAAtto 488 dye (blue; nitrilotriacetic acid complexed to Ni^2+) was added and incubated for 1 hour at room temperature covered from light. The resulting mixture was centrifuged at 12,000×RPM for 10 minutes prior to use. A 1:10 series dilution from 200 mM to 200 zM was created using HBS-P with 1% DMSO. The dyed STING/2′,3′-cGAMP mixture was added to each sample in a 1:1 ratio, resulting in a static 100 nM STING, 50 nM 2′,3′-cGAMP, and a concentration range from 100 mM to 100zM. Samples were incubated for 15-minutes prior to load into Monolith NT.115 capillaries and ran on dianthus NT.23 NanoTemper Pico instrument (NanoTemper Technologies GmbH, München, Germany). Samples were run again at 30- and 45-minutes.

[2] = read-out: Dissociation Constant
[3] = first of two binding events, read-out: Dissociation Constant Kd1
[4] = second of two binding events, read-out: Dissociation Constant Kd2

Sequence of His-labeled STING (Q86WV6 138-379 H232R): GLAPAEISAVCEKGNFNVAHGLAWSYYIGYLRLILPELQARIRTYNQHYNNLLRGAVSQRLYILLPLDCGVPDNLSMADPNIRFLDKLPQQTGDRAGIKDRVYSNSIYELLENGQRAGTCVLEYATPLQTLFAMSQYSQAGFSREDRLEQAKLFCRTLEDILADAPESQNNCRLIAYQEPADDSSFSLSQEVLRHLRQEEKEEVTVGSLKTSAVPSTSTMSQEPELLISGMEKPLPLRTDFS

Cc1cccc(Nc2ncccc2C(=O)OCC(O)CO)c1C (stereo not drawn) [Compound 48]
Confidence (MST shift units) (His-labeled STING): 1 (1=low confidence (<2 MST shift unit-non-statistical))
Dissociation Constant (His-labeled STING): No Binding

CNC(=O)c1cccnc1Nc1cccc(Cl)c1C [Formula (III)]
Interaction with STING as a function of incubation time (dose-response curves) [1]: relatively slow interaction

Cc1c(Br)cccc1Nc1ncccc1C(=O)OCC(O)CO (stereo not drawn) [Compound 26]
Kd (His-labeled STING; [2]): < 0.001 nM

Cc1c(Cl)cccc1Nc1ncccc1C(=O)OCC(O)CO (stereo not drawn) [Compound 19]
Confidence (MST shift units) (His-labeled STING): 1 (1=low confidence (<2 MST shift unit-non-statistical))
Kd (His-labeled STING; [2]): < 0.001 nM

Cc1c(Nc2ncccc2C(=O)OCC(O)CO)cccc1C(F)(F)F (stereo not drawn) [Compound 29]
Kd (His-labeled STING; [2]): < 0.001 nM

Cc1c(Cl)cccc1Nc1ncccc1C(=O)OCCCOC(=O)c1cccnc1Nc1cccc(Cl)c1C [Compound 41]
Confidence (MST shift units) (His-labeled STING): 1 (1=low confidence (<2 MST shift unit-non-statistical))
Kd (His-labeled STING; [2]): 0.1 to 10000 nM

C=CCNC(=O)c1cccnc1Nc1cccc(Cl)c1C [Compound 17]
Confidence (MST shift units) (His-labeled STING): 1 (1=low confidence (<2 MST shift unit-non-statistical))
Kd (His-labeled STING; [2]): 0.1 to 10000 nM

CCNC(=O)c1cccnc1Nc1cccc(Cl)c1C [Compound 15]
Confidence (MST shift units) (His-labeled STING): 1 (1=low confidence (<2 MST shift unit-non-statistical))
Kd (His-labeled STING; [2]): 0.1 to 10000 nM

CCCOC(=O)c1cccnc1Nc1cccc(Cl)c1C [Compound 11]
Confidence (MST shift units) (His-labeled STING): 1 (1=low confidence (<2 MST shift unit-non-statistical))
Kd (His-labeled STING; [3]): 0.1 to 10000 nM
Kd (His-labeled STING; [4]): < 0.001 nM

Cc1c(Cl)cccc1Nc1ncccc1C(=O)OCCCCCOC(=O)c1cccnc1Nc1cccc(Cl)c1C [Compound 50]
Confidence (MST shift units) (His-labeled STING): 3 (3=high confidence (>2 MST shift units-statistical))
Kd (His-labeled STING; [2]): 0.1 to 10000 nM

Cc1c(Cl)cccc1Nc1ncccc1COCC(O)CO (stereo not drawn) [Compound 1]
Confidence (MST shift units) (His-labeled STING): 1 (1=low confidence (<2 MST shift unit-non-statistical))
Kd (His-labeled STING; [2]): 0.001 to 0.1 nM

CCOC(=O)c1cccnc1Nc1cccc(Cl)c1C [Compound 10]
Confidence (MST shift units) (His-labeled STING): 1 (1=low confidence (<2 MST shift unit-non-statistical))
Dissociation Constant (His-labeled STING): Low R2

COC(=O)c1cccnc1Nc1cccc(Cl)c1C [Formula (I)]
EC50 interactions (high, mid, low affinity) from MST dose-response [1]: several nonlinear regression curves

Cc1c(Cl)cccc1Nc1ccccc1C(=O)O [Compound 36]
Confidence (MST shift units) (His-labeled STING): 1 (1=low confidence (<2 MST shift unit-non-statistical))
Dissociation Constant (His-labeled STING): No Binding

CCCNC(=O)c1cccnc1Nc1cccc(Cl)c1C [Compound 16]
Confidence (MST shift units) (His-labeled STING): 2 (2=mid confidence (2-3 MST shift units-intermediate))
Kd (His-labeled STING; [2]): 0.1 to 10000 nM

Cc1c(Cl)cccc1Nc1ncccc1CN [Compound 40]
Kd (His-labeled STING; [3]): 0.1 to 10000 nM
Kd (His-labeled STING; [4]): < 0.001 nM

CCC(COC(=O)c1cccnc1Nc1cccc(Br)c1C)OC (stereo not drawn) [Compound 42]
Confidence (MST shift units) (His-labeled STING): 2 (2=mid confidence (2-3 MST shift units-intermediate))

NC(=O)NC1NC(=O)NC1=O (stereo not drawn) [Compound 52]
Confidence (MST shift units) (His-labeled STING): 3 (3=high confidence (>2 MST shift units-statistical))
Kd (His-labeled STING; [3]): 0.1 to 10000 nM
Kd (His-labeled STING; [4]): < 0.001 nM

CNC(=O)c1cccnc1Nc1cccc(Cl)c1C [Compound 14]
Confidence (MST shift units) (His-labeled STING): 2 (2=mid confidence (2-3 MST shift units-intermediate))
Kd (His-labeled STING; [2]): 0.1 to 10000 nM

Cc1c(Br)cccc1Nc1ncccc1C(=O)O [Compound 23]
Confidence (MST shift units) (His-labeled STING): 3 (3=high confidence (>2 MST shift units-statistical))
Kd (His-labeled STING; [2]): 10000 to 100000 nM

Cc1c(Nc2ncccc2C(=O)O)cccc1C(F)(F)F [Compound 27]
Confidence (MST shift units) (His-labeled STING): 3 (3=high confidence (>2 MST shift units-statistical))
Kd (His-labeled STING; [2]): 0.1 to 10000 nM

CCC(COC(=O)c1ccccc1Nc1cccc(C)c1C)OC (stereo not drawn) [Compound 46]
Confidence (MST shift units) (His-labeled STING): 1 (1=low confidence (<2 MST shift unit-non-statistical))

COC(=O)c1cccnc1Nc1cccc(C(F)(F)F)c1C [Compound 30]
Kd (His-labeled STING; [2]): 0.001 to 0.1 nM

C#CCOC(=O)c1cccnc1Nc1cccc(Cl)c1C [Compound 13]
Confidence (MST shift units) (His-labeled STING): 2 (2=mid confidence (2-3 MST shift units-intermediate))
Kd (His-labeled STING; [2]): 10000 to 100000 nM

COC(=O)c1cccnc1Nc1cccc(Br)c1C [Compound 24]
Confidence (MST shift units) (His-labeled STING): 1 (1=low confidence (<2 MST shift unit-non-statistical))
Kd (His-labeled STING; [2]): 0.001 to 0.1 nM

COC(=O)c1cccnc1Nc1cccc(F)c1C [Compound 44]
Confidence (MST shift units) (His-labeled STING): 1 (1=low confidence (<2 MST shift unit-non-statistical))
Kd (His-labeled STING; [2]): 0.001 to 0.1 nM

COC(=O)c1cccnc1Nc1cccc(Cl)c1C [Compound 9]
Confidence (MST shift units) (His-labeled STING): 3 (3=high confidence (>2 MST shift units-statistical))
Kd (His-labeled STING; [3]): 0.1 to 10000 nM
Kd (His-labeled STING; [4]): < 0.001 nM

Cc1c(Cl)cccc1Nc1ncccc1C(=O)OCCCCOC(=O)c1cccnc1Nc1cccc(Cl)c1C [Compound 49]
Confidence (MST shift units) (His-labeled STING): 1 (1=low confidence (<2 MST shift unit-non-statistical))
Kd (His-labeled STING; [2]): 0.001 to 0.1 nM

CCCCC(=O)c1cccnc1Nc1cccc(Cl)c1C [Compound 21]
Confidence (MST shift units) (His-labeled STING): 2 (2=mid confidence (2-3 MST shift units-intermediate))
Kd (His-labeled STING; [2]): 0.1 to 10000 nM

Cc1cccc(Nc2ncccc2C(=O)O)c1C [Compound 47]
Confidence (MST shift units) (His-labeled STING): 1 (1=low confidence (<2 MST shift unit-non-statistical))
Dissociation Constant (His-labeled STING): No Binding

CNCc1cccnc1Nc1cccc(Cl)c1C [Formula (IV)]
Interaction with STING as a function of incubation time (dose-response curves) [1]: relatively rapid interaction with STING that was not maintained

Cc1c(Cl)cccc1Nc1ccccc1C(=O)OCC(O)CO (stereo not drawn) [Compound 38]
Confidence (MST shift units) (His-labeled STING): 1 (1=low confidence (<2 MST shift unit-non-statistical))
Kd (His-labeled STING; [3]): 0.1 to 10000 nM
Kd (His-labeled STING; [4]): < 0.001 nM

Cc1cccc(Nc2ccccc2C(=O)O)c1C [Compound 45]
Confidence (MST shift units) (His-labeled STING): 1 (1=low confidence (<2 MST shift unit-non-statistical))
Dissociation Constant (His-labeled STING): No Binding

C#CCOC(=O)c1cccnc1Nc1cccc(Cl)c1C [Formula (II)]
EC50 interactions (high, mid, low affinity) from MST dose-response [1]: only a low affinity EC50

Cc1c(Cl)cccc1Nc1ncccc1CO [Compound 4]
Confidence (MST shift units) (His-labeled STING): 2 (2=mid confidence (2-3 MST shift units-intermediate))
Kd (His-labeled STING; [2]): < 0.001 nM

CCC(COC(=O)c1cccnc1Nc1cccc(C)c1C)OC (stereo not drawn) [Compound 43]
Confidence (MST shift units) (His-labeled STING): 1 (1=low confidence (<2 MST shift unit-non-statistical))
